Patent US8598217B2, “Imidazole derivatives and their use as modulators of cyclin dependent kinases” (Astex Therapeutics Ltd., priority 2009, dated 2013)

molecular target: CDK4/cyclin D1 (Homo sapiens (Human), UniProt P11802); test: CDK4/cyclin D1 enzymatic activity assay (Protocol A, Lance TR-FRET); format: biochemical; conditions: CDK4/cyclin D1, 175 nM pRb152, 3 μM ATP, 60 min, room temperature; read-out: IC50 against CDK4 kinase
Experimental: A 384-well microtiter Lance TR-FRET (time-resolved-fluorescence energy transfer) endpoint assay was used for CDK4/cyclin D1 kinase activity measurements. The same assay was used for IC50 determination of small molecule inhibitors. In general, the kinase reactions were carried out in 30 μL volumes in the reaction solution containing the following: 2 μL compound (in 20% DMSO), 18 uL CDK4/cyclin D1 in Assay Buffer (50 mM HEPES, pH 7.5, 5 mM MgCl2, 2 mM MnCl2, 1 mM DTT, 0.05% BSA, 0.02% Tween-20), 10 μL of the mixture of pRb152 and ATP. The final reaction mixture contains compound (inhibitor) with the concentration varying from […], 2% DMSO, 0.3 nM CDK4/cyclin D1, 175 nM pRb152, and 3 μM ATP (Amersham Pharmacia, Cat. No. 27-2056-01). All reactions were run at room temperature in 384-well white flat-bottom OptiPlates (Perkin Elmer, Cat. No. 6007290) for 60 min then were quenched by the addition of 10 μL of 120 mM EDTA. The signals were captured by the addition of 40 μL of the Detection Solution containing the following: Detection Buffer (50 mM HEPES, pH 7.5, 30 mM EDTA, 0.1% Triton x-100, 0.05% BSA), 70 ng/mL anti-phospho-pRb(S780) (Cell Signaling Technology, Cat. No. 9307S), 1 nM Lance Eu-W1024-Rabbit anti-IgG (Perkin Elmer, Cat. No. AD0082), and 20 nM SureLight™ Allophycocyanin-Streptavidin (Perkin Elmer, Cat. No. CR130-100). The resulted solutions were incubated at room temperature for 2 hours before read on the Evision Multilabel Reader (Perkin Elmer, Envision 2102-0010). Note: IC50<0.005 nM or IC50>10 μM indicates the true IC50 is out of detection range.
CDK4/cyclin D1 recombinant protein used in the enzymatic activity assay was prepared by coexpressing pDEST10-CDK4 (N-terminal His6) and pFastBacDual-GST-hCyclinD1 viruses in Sf21 cells. The overexpressed protein was purified by Ni-NTA affinity pull down to >80% pure by Sizing HPLC.

Chain of CDK4/cyclin D1 (P11802 whole entry): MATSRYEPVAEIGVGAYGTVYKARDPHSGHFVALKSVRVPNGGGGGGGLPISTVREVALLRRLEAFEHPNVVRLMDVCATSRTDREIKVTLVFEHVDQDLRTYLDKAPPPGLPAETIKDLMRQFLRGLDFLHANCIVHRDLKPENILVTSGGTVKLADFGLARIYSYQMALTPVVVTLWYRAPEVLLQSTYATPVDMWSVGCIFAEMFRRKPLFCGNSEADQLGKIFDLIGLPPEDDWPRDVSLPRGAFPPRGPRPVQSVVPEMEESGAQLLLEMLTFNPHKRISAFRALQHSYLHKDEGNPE
Chain of CDK4/cyclin D1 (P24385 whole entry partner): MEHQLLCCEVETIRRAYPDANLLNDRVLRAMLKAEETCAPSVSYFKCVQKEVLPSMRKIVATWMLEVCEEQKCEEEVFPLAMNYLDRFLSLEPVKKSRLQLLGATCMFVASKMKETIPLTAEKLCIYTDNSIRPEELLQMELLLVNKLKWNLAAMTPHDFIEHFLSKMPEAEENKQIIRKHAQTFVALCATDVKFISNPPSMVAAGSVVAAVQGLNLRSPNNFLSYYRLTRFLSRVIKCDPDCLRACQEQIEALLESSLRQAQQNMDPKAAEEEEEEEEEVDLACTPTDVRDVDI

SMILES | IC50
CN(C)C1CCN(c2ccc3nc(C(=O)c4ccc(C#N)c(-c5cncc6ccccc56)c4)[nH]c3n2)CC1 [Example 165, 4-[5-(4-Dimethylamino-piperidin-1-yl)-3H-imidazo[4,5-b]pyridine-2-carbonyl]-2-isoquinolin-4-yl-benzonitrile] | 3 nM
Cc1ncc2ccccc2c1-c1cc(C(=O)c2nc3cc(C(=O)N4CCNCC4)ccc3[nH]2)ccc1C#N [Example 174, 2-(3-Methyl-isoquinolin-4-yl)-4-[5-(piperazine-1-carbonyl)-1H-benzoimidazole-2-carbonyl]-benzonitrile] | 5 nM
N#Cc1ccc(C(=O)c2nc3ccc(N4CCNCC4)nc3[nH]2)cc1-c1cncc2ccccc12 [Example 166, 2-Isoquinolin-4-yl-4-(5-piperazin-1-yl-3H-imidazo[4,5-b]pyridine-2-carbonyl)-benzonitrile] | 8 nM
CN(C)Cc1ccc2nc(C(=O)c3ccnc(-c4cncc5ccccc45)c3)[nH]c2c1 [Example 84, (6-Dimethylaminomethyl-1H-benzoimidazol-2-yl)-(2-isoquinolin-4-yl-pyridin-4-yl)-methanone] | 57 nM
O=C(c1ccnc(-c2cncc3ccccc23)c1)c1nc2ccc(S(=O)(=O)N3CCNCC3)cc2[nH]1 [Example 182, (2-Isoquinolin-4-yl-pyridin-4-yl)-[6-(piperazine-1-sulfonyl)-1H-benzoimidazol-2-yl]-methanone] | 77 nM
Cc1n[nH]c(C)c1-c1cc(C(=O)c2nc3ccc(N4CCCNCC4)nc3[nH]2)ccn1 [Example 170, (5-[1,4]Diazepan-1-yl-3H-imidazo[4,5-b]-pyridin-2-yl)-[2-(3,5-dimethyl-1H-pyrazol-4-yl)-pyridin-4-yl]-methanone] | 548 nM
CN(C)C1CCN(c2ccc3[nH]c(C(=O)c4ccnc(-c5cncc6ccccc56)c4)nc3c2)CC1 [Example 89, [5-(4-Dimethylamino-piperidin-1-yl)-1H-benzoimidazol-2-yl]-(2-isoquinolin-4-yl-pyridin-4-yl)-methanone] | 4 nM
Cc1n[nH]c(C)c1-c1cc(C(=O)c2nc3ccc(N4CCC(N(C)C)CC4)nc3[nH]2)ccn1 [Example 167, [5-(4-Dimethylamino-piperidin-1-yl)-3H-imidazo[4,5-b]pyridine-2-yl]-[2-(3,5-dimethyl-1H-pyrazol-4-yl)-pyridin-4-yl]-methanone] | 195 nM
O=C(c1ccnc(-c2cncc3ccccc23)c1)c1nc2cc(OCC(O)CO)ccc2[nH]1 (stereo not shown) [Example 98, [5-(2,3-Dihydroxy-propoxy)-1H-benzoimidazol-2-yl]-(2-isoquinolin-4-yl-pyridin-4-yl)-methanone] | 33 nM
Cc1nn(C)c(C)c1-c1cc(C(=O)c2nc3ccc(N4CCNCC4)nc3[nH]2)ccc1C#N [Example 189, 4-(5-piperazin-1-yl-3H-imidazo[4,5-b]pyridine-2-carbonyl)-2-(1,3,5-trimethyl-1H-pyrazol-4-yl)-benzonitrile] | 95 nM
Cc1nn(C)c(C)c1-c1cc(C(=O)c2nc3ccc(N4CCC(N(C)C)CC4)nc3[nH]2)ccc1C#N [Example 173, 4-[5-(4-Dimethylamino-piperidin-1-yl)-3H-imidazo[4,5-b]pyridine-2-carbonyl]-2-(1,3,5-trimethyl-1H-pyrazol-4-yl)-benzonitrile] | 12 nM
COc1ccc(F)c(F)c1-c1cc(C(=O)c2nc3ccc(N4CCC(N(C)C)CC4)nc3[nH]2)ccn1 [Example 148, [5-(4-dimethylamino-piperidin-1-yl)-3H-imidazo[4,5-b]pyridin-2-yl]-[2-(2,3-difloro-6-methoxy-phenyl)-pyridin-4-yl]-methanone] | 67 nM

same assay, conditions: CDK4/cyclin D1, 175 nM pRb152, 3 μM ATP; bound stated; read-out: IC50 values against CDK4

SMILES | IC50
COc1cccc(F)c1-c1cc(C(=O)c2nc3ccc(N4CCN(C)CC4)cc3[nH]2)ccn1 [Example 49, [2-(2-Fluoro-6-methoxy-phenyl)-pyridin-4-yl]-[6-(4-methyl-piperazin-1-yl)-1H-benzoimidazol-2-yl]-methanone] | < 10000 nM
Cc1nn(C)c(C)c1-c1cc(C(=O)c2nc3ccc(N4CCNC(C)(C)C4=O)nc3[nH]2)ccc1C#N [Example 209, 4-[5-(3,3-Dimethyl-2-oxo-piperazin-1-yl)-3H-imidazo[4,5-b]pyridine-2-carbonyl]-2-(1,3,5-trimethyl-1H-pyrazol-4-yl)-benzonitrile] | < 10000 nM
CNS(=O)(=O)c1ccccc1-c1cc(C(=O)c2nc3ccc(N4CCC(N(C)C)CC4)cc3[nH]2)ccn1 [Example 120, 2-{4-[6-(4-Dimethylamino-piperidin-1-yl)-1H-benzoimidazole-2-carbonyl]-pyridin-2-yl}-N-methyl-benzenesulfonamide] | < 10000 nM
CN(C)C1CCN(c2ncc3nc(C(=O)c4ccnc(-c5cncc6ccccc56)c4)[nH]c3n2)CC1 [Example 133, [2-(4-Dimethylamino-piperidin-1-yl)-9H-purin-8-yl]-(2-isoquinolin-4-yl-pyridin-4-yl)-methanone] | < 10000 nM
COc1ccc(F)c(F)c1-c1cncc(C(=O)c2nc3cc(CN(C)C)ccc3[nH]2)c1 [Example 159, [5-(2,3-Difluoro-6-methoxy-phenyl)-pyridin-3-yl]-(5-dimethylaminomethyl-1H-benzoimidazol-2-yl)-methanone] | < 10000 nM
O=C(c1ccnc(-c2cncc3ccccc23)c1)c1nc2cc(OCC(O)CO)ccc2[nH]1 (stereo not shown) [Example 98, [5-(2,3-Dihydroxy-propoxy)-1H-benzoimidazol-2-yl]-(2-isoquinolin-4-yl-pyridin-4-yl)-methanone] | < 10000 nM
Cc1cc(F)ncc1-c1cc(C(=O)c2nc3ccc(N4CCC(N(C)C)CC4)cc3[nH]2)ccn1 [Example 119, [6-(4-Dimethylamino-piperidin-1-yl)-1H-benzoimidazol-2-yl]-(6′-fluoro-4′-methyl-[2,3′]bipyridinyl-4-yl)-methanone] | < 10000 nM
CN(C)Cc1cccc2[nH]c(C(=O)c3ccnc(-c4cncc5ccccc45)c3)nc12 [Example 79A, (4-Dimethylaminomethyl-1H-benzoimidazol-2-yl)-(2-isoquinolin-4-yl-pyridin-4-yl)-methanone] | < 10000 nM
Cc1nn(C)c(C)c1-c1cc(C(=O)c2nc3ccc(OC4CCNC4)nc3[nH]2)ccc1C#N (stereo not shown) [Example 160, 4-[5-(Pyrrolidin-3-yloxy)-3H-imidazo[4,5-b]pyridine-2-carbonyl]-2-(1,3,5-trimethyl-1H-pyrazol-4-yl)-benzonitrile] | < 10000 nM
COc1ccc(F)c(F)c1-c1cc(C(=O)c2nc3c(CN(C)C)cccc3[nH]2)ccn1 [Example 79B, [2-(2,3-Difluoro-6-methoxy-phenyl)-pyridin-4-yl]-(4-dimethylaminomethyl-1H-benzoimidazol-2-yl)-methanone] | < 10000 nM
